One block for each compound: values may come before it.
Target: T1, 3-oxo-5-alpha-steroid 4-dehydrogenase 2 (Homo sapiens, UniProt P31213)
T1 sequence (P31213 whole entry): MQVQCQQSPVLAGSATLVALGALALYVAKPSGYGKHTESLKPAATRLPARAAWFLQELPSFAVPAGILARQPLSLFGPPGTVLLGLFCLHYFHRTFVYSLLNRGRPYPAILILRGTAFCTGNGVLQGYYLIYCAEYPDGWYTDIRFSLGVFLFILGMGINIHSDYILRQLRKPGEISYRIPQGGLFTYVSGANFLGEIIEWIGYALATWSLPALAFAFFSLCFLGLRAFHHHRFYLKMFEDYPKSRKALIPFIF
Test: Inhibition of Homo sapiens (human) Steroid 5-alpha-reductase type 2

IC50: 0.5 nM
SMILES: CC(C)c1cc(C(C)C)c(C(=O)[C@H]2CC[C@H]3[C@@H]4CNC5=CC(=O)CC[C@]5(C)[C@H]4CC[C@]23C)c(C(C)C)c1

IC50: 1.4 nM
SMILES: CC1=C2NC[C@H]3[C@@H]4CC[C@H](C(=O)NC(C)(C)C)[C@@]4(C)CC[C@@H]3[C@@]2(C)CCC1=O

IC50: 0.23 nM
SMILES: C[C@]12CC[C@H]3[C@@H](CNC4=CC(=O)CC[C@@]43C)[C@@H]1CC[C@@H]2C(=O)NN(c1ccccc1)c1ccccc1

IC50: 0.09 nM
SMILES: C[C@]12CC[C@H]3[C@@H](CNC4=CC(=O)CC[C@@]43C)[C@@H]1CC[C@@H]2C(=O)NC(c1ccccc1)(c1ccccc1)c1ccccc1

IC50: 0.4 nM
SMILES: C[C@]12CC[C@H]3[C@@H](CNC4=CC(=O)CC[C@@]43C)[C@@H]1CC[C@@H]2C(=O)NC(C1CCCCC1)C1CCCCC1

IC50: 5.7 nM
SMILES: CCN(CC)C(=O)[C@H]1CC[C@H]2[C@@H]3CN(C)C4=CC(=O)C=C[C@]4(C)[C@H]3CC[C@]12C

IC50: 3.5 nM
SMILES: CCN(CC)C(=O)[C@H]1CC[C@H]2[C@@H]3CNC4=CC(=O)C=C[C@]4(C)[C@H]3CC[C@]12C

IC50: 0.3 nM
SMILES: CN1C[C@H]2[C@@H]3CC[C@H](C(=O)NC4C5CC6CC(C5)CC4C6)[C@@]3(C)CC[C@@H]2[C@@]2(C)CCC(=O)C=C12 (some centres undefined)

IC50: 2.4 nM
SMILES: CON(C)C(=O)[C@H]1CC[C@H]2[C@@H]3CNC4=CC(=O)CC[C@]4(C)[C@H]3CC[C@]12C

IC50: 2.1 nM
SMILES: CCN(CC)C(=O)[C@H]1CC[C@H]2[C@@H]3CNC4=C(Br)C(=O)CC[C@]4(C)[C@H]3CC[C@]12C

IC50: 4.9 nM
SMILES: CCN(CC)C(=O)[C@H]1CC[C@H]2[C@@H]3CN(C(C)C)C4=CC(=O)CC[C@]4(C)[C@H]3CC[C@]12C

IC50: 1.3 nM
SMILES: CCCN1C[C@H]2[C@@H]3CC[C@H](C(=O)NC(c4ccccc4)c4ccccc4)[C@@]3(C)CC[C@@H]2[C@@]2(C)C=CC(=O)C=C12

More lines, now with the values behind:

SMILES: CCN(CC)C(=O)[C@H]1CC[C@H]2[C@@H]3CNC4=CC(=O)CC[C@]4(C)[C@H]3CC[C@]12C
IC50: 1.5 nM

SMILES: CCN(CC)C(=O)[C@H]1CC[C@H]2[C@@H]3CNC4=C(C)C(=O)C=C[C@]4(C)[C@H]3CC[C@]12C
IC50: 8.1 nM

SMILES: C[C@]12CC[C@H]3[C@@H](CNC4=CC(=O)CC[C@@]43C)[C@@H]1CC[C@@H]2C(=O)Nc1cc(C(F)(F)F)cc(C(F)(F)F)c1
IC50: 0.2 nM

SMILES: CCN(CC)C(=O)[C@H]1CC[C@H]2[C@@H]3CN(C#N)C4=CC(=O)CC[C@]4(C)[C@H]3CC[C@]12C
IC50: 42 nM

SMILES: C[C@]12CC[C@H]3[C@@H](CNC4=CC(=O)CC[C@@]43C)[C@@H]1CC[C@@H]2C(=O)N1CCOCC1
IC50: 7.1 nM

SMILES: C[C@]12CC[C@H]3[C@@H](CNC4=CC(=O)CC[C@@]43C)[C@@H]1CC[C@@H]2C(=O)NC(c1ccccc1)c1ccccc1
IC50: 0.09 nM

SMILES: CC(C)(C)NC(=O)[C@H]1CC[C@H]2[C@@H]3CNC4=CC(=O)C=C[C@]4(C)[C@H]3CC[C@]12C
IC50: 1.8 nM

SMILES: CC(C)(C)c1ccccc1NC(=O)[C@H]1CC[C@H]2[C@@H]3CNC4=CC(=O)CC[C@]4(C)[C@H]3CC[C@]12C
IC50: 0.2 nM

SMILES: CN1C[C@H]2[C@@H]3CC[C@H](C(=O)NC(C)(C)C)[C@@]3(C)CC[C@@H]2[C@@]2(C)C=CC(=O)C=C12
IC50: 6.7 nM

SMILES: C[C@]12CC[C@H]3[C@@H](CNC4=CC(=O)CC[C@@]43C)[C@@H]1CC[C@@H]2C(=O)NC(c1ccc(Cl)cc1)c1ccc(Cl)cc1
IC50: 0.12 nM

SMILES: CN1C[C@H]2[C@@H]3CC[C@H](C(=O)NC(c4ccccc4)c4ccccc4)[C@@]3(C)CC[C@@H]2[C@@]2(C)CCC(=O)C=C12
IC50: 0.2 nM

SMILES: CCN(C)C(=O)[C@H]1CC[C@H]2[C@@H]3CNC4=CC(=O)CC[C@]4(C)[C@H]3CC[C@]12C
IC50: 2.8 nM

SMILES: CC(C)N(C(=O)[C@H]1CC[C@H]2[C@@H]3CNC4=CC(=O)CC[C@]4(C)[C@H]3CC[C@]12C)C(C)C
IC50: 0.36 nM

SMILES: CC(C)(C)c1ccc(-c2ccc(C(F)(F)F)cc2NC(=O)[C@H]2CC[C@H]3[C@@H]4CNC5=CC(=O)CC[C@]5(C)[C@H]4CC[C@]23C)cc1
IC50: 0.5 nM

SMILES: C[C@]12CC[C@H]3[C@@H](CNC4=CC(=O)CC[C@@]43C)[C@@H]1CC[C@@H]2C(=O)OC1C2CC3CC(C2)CC1C3 (some centres undefined)
IC50: 0.04 nM

SMILES: CC(C)CC(=O)[C@H]1CC[C@H]2[C@@H]3CNC4=CC(=O)CC[C@]4(C)[C@H]3CC[C@]12C
IC50: 0.08 nM

SMILES: CCN(CC)C(=O)[C@H]1CC[C@H]2[C@@H]3CN(C)C4=CC(=O)CC[C@]4(C)[C@H]3CC[C@]12C
IC50: 2.3 nM

From ChEMBL document CHEMBL3046251, “3D-QSAR CoMFA and CoMSIA studies for design of potent human steroid 5-reductase inhibitors” (Med Chem Res, 2013)
